Results published in patent publication US5932742A, “Arylsulfonylimidazolone derivatives as an antitumor agent” (priority 1996, dated 1999).
Values after ≈ are worked out from the molar mass of the structure shown. Structures can show the parent of a compound that is named as a salt. Where two headings read alike, the source gives them in different places.

What was measured:
Format in all cases: cell-based
[1] = test system: A549 (ATCC CCL 185): human lung carcinoma; assay: In vitro antitumor activity, MTT assay, A549; conditions: Homo sapiens, A549, 48 h
Description: (§1) In vitro antitumor activity against human tumor cell lines
(§2) In vitro antitumor activity of the compounds according to the present invention was determined by MTT assay method against the following human tumor cell lines:
A549 (ATCC CCL 185): human lung carcinoma
(§3) In this test, the known antineoplastic compounds, Doxorubicin and Sulofenur, were used as the comparative agents.
(§4) Each of the tumor cells was cultured in RPMI 1640 media containing 10% fetal bovine serum, 100 IU/ml penicillin and 100 μg/ml streptomycin, and then periodically subcultured once or twice per week in trypsin-EDTA solution containing 0.05% trypsin and 0.53mM EDTA.4Na. The human tumor cell line thus obtained (10,000cells/100 μl) was plated on 96-well microplate and then cultured for 24 hrs at 37° C. in a 5% CO2 incubator. Test compound was dissolved in DMSO, sterilized with 0.22 μm PVDF filter, and then serially 5-fold diluted from 40 μg/ml to 0.00256μg/ml. 100 μl of the sample solution thus prepared and RPMI 1640 medium only (control group) were added to 96-well microplate containing the human tumor cell, respectively. The final concentration of the test compound was in the range from 20 μg/ml to 0.00128 μg/ml and the concentration of DMSO was below 0.5%. The cells were cultured for 48 hrs at 37° C. in a 5% CO2 incubator. MTT(3-(4,5-Dimethylthiazole-2-yl)-e,5-diphenyltetrazoliumbromide) was dissolved in physiological saline in a concentration of 2 mg/ml and the resulting solution was filtered through 0.22 μm PTFE filter. 25 μl of MTT solution thus prepared was added to each well of 96-well microplate and incubated for additional 4 hrs at 37° C. in a 5% CO2 incubator. Then, the content of microplate was centrifuged at 1000 rpm for 10 min, and supernatant was removed by flicking. The formazan formed from MTT by mitochondrial succinate dehydrogenase was dissolved in 100 μl of DMSO. The absorbance of each well was measured at 540nm by micro ELISA reader and the cytotoxicity was calculated by dividing the absorbance of test group by the absorbance of control group. After the calculated cytotoxicity (%) was plotted, the concentration of 50% tumor growth inhibition concentration (IC50) was estimated by Linear-Regression method.

[2] = test system: KB (ATCC CCL 17): human epidermoid carcinoma; assay: In vitro antitumor activity, MTT assay, KB; conditions: Homo sapiens, MTT, 48 hrs, read-out: IC50 (KB)
Description: as §1, §2
KB (ATCC CCL 17): human epidermoid carcinoma
as §3, §4

[3] = test system: SK-OV-3 (ATCC HTB 77): human ovarian adenocarcinoma; assay: In vitro antitumor activity, MTT assay, SK-OV-3; conditions: Homo sapiens
Description: as §1, §2
SK-OV-3 (ATCC HTB 77): human ovarian adenocarcinoma
as §3, §4

[4] = test system: Colo205 (ATCC CCL 222): human colon adenocarcinoma; assay: In vitro antitumor activity, MTT assay, Colo205; conditions: Homo sapiens
Description: as §1, §2
Colo205 (ATCC CCL 222): human colon adenocarcinoma
as §3, §4

[5] = test system: K562 (ATCC CCL 243): human chronic myelogenous leukemia; assay: In vitro antitumor activity, MTT assay, K562; conditions: Homo sapiens, K562, 48 h
Description: as §1, §2
K562 (ATCC CCL 243): human chronic myelogenous leukemia
as §3, §4

[6] = COLO 205, Table 2, 48 hrs, read-out: IC50 (Colo205)
[7] = COLO 205, Table 3, 48 hrs, read-out: IC50 (Col205)
[8] = COLO 205, Table 5, 48 hrs, read-out: IC50 (Colo205)

SMILES | IC50 ([5]; Table 3, read-out: IC50 (K562)) | IC50 ([1]; Table 3) | IC50 ([3]; SK-OV-3, Table 3, 48 hrs) | IC50 [4, 7] | other results
CC(C)NCC(=O)N1c2ccc(S(=O)(=O)n3cc(-c4ccccc4)[nH]c3=O)cc2CC1C (stereo not shown) [Example 23, 4-phenyl-1-(N-isopropylaminoacetyl-2-methylindoline-5-sulfonyl)-2-imidazolone.HCl] | – | – | – | – | IC50 ([1]; Table 2): 1.14 µg/mL; IC50 ([2]; Table 2): 0.429 µg/mL; IC50 ([3]; SK-OV-3, Table 2, 48 hrs): 4.03 µg/mL; IC50 [4, 6]: 3.45 µg/mL
Nc1ccc(NC(=O)N2CCc3cc(S(=O)(=O)N4CC(c5ccccc5)NC4=O)ccc32)cc1 (stereo not shown) [Example 35, 4-phenyl-1-[N-(4-aminophenyl)carbamoylindoline-5-sulfonyl)-4,5-dihydro-2-imidazolone] | 0.004 µg/mL (≈ 0.00838 µM) | 0.286 µg/mL (≈ 0.599 µM) | 0.763 µg/mL (≈ 1.6 µM) | 3.24 µg/mL (≈ 6.78 µM) | –
O=C(CCl)Nc1ccc(C(=O)N2CCc3cc(S(=O)(=O)n4cc(-c5ccccc5)[nH]c4=O)ccc32)cc1 [Example 19, 4-phenyl-1-[N-(4-chloroacetylaminobenzoyl)indoline-5-sulfonyl]-2-imidazolone] | – | – | – | – | IC50 ([1]; Table 2): 0.438 µg/mL (≈ 0.816 µM); IC50 ([2]; Table 2): 0.046 µg/mL (≈ 0.0857 µM); IC50 ([3]; SK-OV-3, Table 2, 48 hrs): 0.202 µg/mL (≈ 0.376 µM); IC50 [4, 6]: 0.58 µg/mL (≈ 1.08 µM)
CC1Cc2cc(S(=O)(=O)n3cc(-c4ccccc4)[nH]c3=O)ccc2N1C(=O)CCl (stereo not shown) [Example 21, 4-phenyl-1-(N-chloroacetyl-2-methylindoline-5-sulfonyl)-2-imidazolone] | – | – | – | – | IC50 ([1]; Table 2): 1.13 µg/mL (≈ 2.61 µM); IC50 ([2]; Table 2): 1.53 µg/mL (≈ 3.54 µM); IC50 ([3]; SK-OV-3, Table 2, 48 hrs): 4.71 µg/mL (≈ 10.9 µM); IC50 [4, 6]: 0.834 µg/mL (≈ 1.93 µM)
O=C(NC1CCCCC1)N1CCc2cc(S(=O)(=O)N3CC(c4ccccc4)NC3=O)ccc21 (stereo not shown) [Example 33, 4-phenyl-1-(N-cyclohexylcarbamoylindoline-5-sulfonyl)-4,5-dihydro-2-imidazolone] | 0.0037 µg/mL (≈ 0.0079 µM) | 0.003 µg/mL (≈ 0.0064 µM) | 0.043 µg/mL (≈ 0.0918 µM) | 0.172 µg/mL (≈ 0.367 µM) | –
C=CCNCC(=O)N1c2ccc(S(=O)(=O)n3cc(-c4ccccc4)[nH]c3=O)cc2CC1C (stereo not shown) [Example 28, 4-phenyl-1-(N-allylaminoacetyl-2-methylindoline-5-sulfonyl)-2-imidazolone.HCl] | – | – | – | – | IC50 ([1]; Table 2): 0.604 µg/mL; IC50 ([2]; Table 2): 1.12 µg/mL; IC50 ([3]; SK-OV-3, Table 2, 48 hrs): 1.52 µg/mL; IC50 [4, 6]: 1.05 µg/mL
CNCC(=O)N1c2ccc(S(=O)(=O)n3cc(-c4ccccc4)[nH]c3=O)cc2CC1C (stereo not shown) [Example 22, 4-phenyl-1-(N-methylaminoacetyl-2-methylindoline-5-sulfonyl)-2-imidazolone.HCl] | – | – | – | – | IC50 ([1]; Table 2): 3.24 µg/mL; IC50 ([2]; Table 2): 0.688 µg/mL; IC50 ([3]; SK-OV-3, Table 2, 48 hrs): 3.08 µg/mL; IC50 [4, 6]: 3.8 µg/mL
O=C1NC(c2ccccc2)CN1S(=O)(=O)c1ccc2c(c1)CCN2C(=S)Nc1ccccc1 (stereo not shown) [Example 42, 4-phenyl-1-(N-phenylthiocarbamoylindoline-5-sulfonyl)-4,5-dihydro-2-imidazolone] | 0.017 µg/mL (≈ 0.0355 µM) | 0.095 µg/mL (≈ 0.198 µM) | 10.5 µg/mL (≈ 21.9 µM) | 2.14 µg/mL (≈ 4.46 µM) | –
O=C1NC(c2ccccc2)CN1S(=O)(=O)c1ccc2c(c1)CCN2C(=S)Nc1ccc(F)cc1 (stereo not shown) [Example 46, 4-phenyl-1-[N-(4-fluorophenyl)thiocarbamoylindoline-5-sulfonyl]-4,5-dihydro-2-imidazolone] | 3.94 µg/mL (≈ 7.94 µM) | 3.29 µg/mL (≈ 6.63 µM) | 3.13 µg/mL (≈ 6.3 µM) | 8.74 µg/mL (≈ 17.6 µM) | –
Cc1ccc(NC(=O)N2CCc3cc(S(=O)(=O)N4CC(c5ccccc5)NC4=O)ccc32)cc1 (stereo not shown) [Example 45, 4-phenyl-1-[N-(4-methylphenyl)carbamoylindoline-5-sulfonyl]-4,5-dihydro-2-imidazolone] | 1.03 µg/mL (≈ 2.17 µM) | 0.311 µg/mL (≈ 0.653 µM) | 0.813 µg/mL (≈ 1.71 µM) | 3.27 µg/mL (≈ 6.85 µM) | –
CSc1ccc(NC(=O)N2CCc3cc(S(=O)(=O)N4CC(c5ccccc5)NC4=O)ccc32)cc1 (stereo not shown) [Example 37] | > 20 µg/mL | 2.34 µg/mL (≈ 4.6 µM) | 0.716 µg/mL (≈ 1.41 µM) | 0.71 µg/mL (≈ 1.4 µM) | –
CCNC(=S)N1CCc2cc(S(=O)(=O)N3CC(c4ccccc4)NC3=O)ccc21 (stereo not shown) [Example 39, 4-phenyl-1-(N-ethylthiocarbamoylindoline-5-sulfonyl)-4,5-dihydro-2-imidazolone] | 0.567 µg/mL (≈ 1.32 µM) | 0.438 µg/mL (≈ 1.02 µM) | 3.17 µg/mL (≈ 7.36 µM) | 9.11 µg/mL (≈ 21.2 µM) | –
CC(C)NC(=O)N1CCc2cc(S(=O)(=O)N3CC(c4ccccc4)NC3=O)ccc21 (stereo not shown) [Example 31, 4-phenyl-1-(N-isopropylcarbamoylindoline-5-sulfonyl)-4,5-dihydro-2-imidazolone] | 0.439 µg/mL (≈ 1.02 µM) | 0.073 µg/mL (≈ 0.17 µM) | 0.28 µg/mL (≈ 0.653 µM) | 0.258 µg/mL (≈ 0.602 µM) | –
COc1ccc(NC(=O)N2CCc3cc(S(=O)(=O)N4CC(c5ccccc5)NC4=O)ccc32)cc1 (stereo not shown) [Example 36, 4-phenyl-1-[N-(4-methoxyphenyl)carbamoylindoline-5-sulfonyl]-4,5-dihydro-2-imidazolone] | 6.92 µg/mL (≈ 14 µM) | 0.18 µg/mL (≈ 0.365 µM) | 0.047 µg/mL (≈ 0.0954 µM) | 0.391 µg/mL (≈ 0.794 µM) | –
NCC(=O)Nc1ccc(C(=O)N2CCc3cc(S(=O)(=O)N4C[C@H](c5ccccc5)NC4=O)ccc32)cc1 [Example 67, (S)-(+)-4-phenyl-1-[N-{4-(2-aminoacetyl)aminobenzoyl}indoline-5-sulfonyl]-4,5-dihydro-2-imidazolone.HCl] | – | – | – | – | IC50 ([5]; Table 5, read-out: IC50 (K562)): 1.32 µg/mL; IC50 ([1]; Table 5): 0.254 µg/mL; IC50 ([3]; SK-OV-3, Table 5, 48 hrs): 0.855 µg/mL; IC50 [4, 8]: 0.971 µg/mL
CCNC(=O)N1CCc2cc(S(=O)(=O)n3cc(-c4ccccc4)[nH]c3=O)ccc21 [Example 2, 4-phenyl-1-(N-ethylcarbamoylindoline-5-sulfonyl)-2-imidazolone] | – | – | – | – | IC50 ([1]; Table 1): 0.325 µg/mL (≈ 0.788 µM); IC50 ([2]; Table 1): 16.7 µg/mL (≈ 40.4 µM); IC50 ([3]; SK-OV-3, Table 1, 48 hrs): 0.537 µg/mL (≈ 1.3 µM)
CCCNC(=O)N1CCc2cc(S(=O)(=O)N3CC(c4ccccc4)NC3=O)ccc21 (stereo not shown) [Example 30, 4-phenyl-1-(N-propylcarbamoylindoline-5-sulfonyl)-4,5-dihydro-2-imidazolone] | 0.488 µg/mL (≈ 1.14 µM) | 0.103 µg/mL (≈ 0.24 µM) | 0.261 µg/mL (≈ 0.609 µM) | 0.254 µg/mL (≈ 0.593 µM) | –
C[C@H](N)C(=O)Nc1ccc(C(=O)N2CCc3cc(S(=O)(=O)N4C[C@H](c5ccccc5)NC4=O)ccc32)cc1 [Example 66, (S)-(+)-4-phenyl-1-[N-{4-(2-aminopropanoyl)aminobenzoyl}indoline-5-sulfonyl]-4,5-dihydro-2-imidazolone.HCl] | – | – | – | – | IC50 ([5]; Table 5, read-out: IC50 (K562)): 3.57 µg/mL; IC50 ([1]; Table 5): 0.112 µg/mL; IC50 ([3]; SK-OV-3, Table 5, 48 hrs): 0.259 µg/mL; IC50 [4, 8]: 0.77 µg/mL
COc1ccccc1NC(=O)N1CCc2cc(S(=O)(=O)N3CC(c4ccccc4)NC3=O)ccc21 (stereo not shown) [Example 44, 4-phenyl-1-[N-(2-methoxyphenyl)carbamoylindoline-5-sulfonyl]-4,5-dihydro-2-imidazolone] | 0.29 µg/mL (≈ 0.589 µM) | 0.135 µg/mL (≈ 0.274 µM) | 0.273 µg/mL (≈ 0.554 µM) | 1.47 µg/mL (≈ 2.97 µM) | –
CNC(=S)N1CCc2cc(S(=O)(=O)N3CC(c4ccccc4)NC3=O)ccc21 (stereo not shown) [Example 38, 4-phenyl-1-(N-methylthiocarbamoylindoline-5-sulfonyl)-4,5-dihydro-2-imidazolone] | 0.00452 µg/mL (≈ 0.0109 µM) | 0.092 µg/mL (≈ 0.221 µM) | 1.98 µg/mL (≈ 4.75 µM) | 0.65 µg/mL (≈ 1.56 µM) | –
